One data set has as its target T1, human MCH-1R (Homo sapiens, UniProt Q99705).
T1 construct: expressed in transfected cells; host or cells: CHO-K1 (American Type Culture Collection), plasmid vector pEF/myc/cyto (Invitrogen)
The data set can be described thus: MCH binding inhibition test. The settings on record: membranes of CHO-K1 cells expressing human MCH-1R, 50 pM [125I]MCH, 25° C., an hour; read-out: IC50 (50% inhibition concentration to specific [125I]MCH binding). As to the method:
The obtained expression vector was transfected to a host cell CHO-K1 (American Type Culture Collection) using Lipofectamine Plus Reagent (Life Technology Inc.) to provide MCH-1R expression cells.
After washing the glass filter with 50 mM Tris buffer (pH7.4) comprising 10 mM magnesium chloride, 2 mM ethylenediamine tetraacetate and 0.04% Tween-20, radiative activity on the glass filter was measured. […] MCH binding was determined.

The nature of data set [1]: Brain/cerebrospinal fluid migration test. The data set is classed as in vivo. As to conditions: SD male rats, after 2 hours of oral administration (10 mg/kg); for concentration at 2 h: rat. From the text: A test compound was orally or intravenously administered to SD male rats (7 to 10 weeks-age, 200 to 400 g). Under anesthesia with ether for a predetermined period of time, from each of the rats whole blood was collected from its abdominal aorta using a heparin-processed syringe. Thereafter the brain skin was cut open and a 30 G needle for dental use was pierced between the cervical vertebrae and inserted into the subarachnoid cavity. Through the tube connected with the dental 30 G needle, 50-100 μL of the cerebrospinal fluid was collected into a 1-mL syringe, and then the brain was taken out. Each blood sample was centrifuged (4° C., 6,000 rpm,10 minutes) and the resulting plasma was stirred with three-fold the amount thereof of ethanol (including an internal standard substance). The brain sample was added with 2 mL of water and homogenized, a part of which was taken and stirred with three-fold the amount thereof of ethanol (including an internal standard substance). The cerebrospinal fluid was stirred with three-fold the amount thereof of ethanol (including an internal standard substance). Those samples were allowed to stand for 20 minutes at −20° C., and then centrifuged (4° C., 12,000 g, 10 minutes). The supernatant was analyzed through LC/MS/MS, and the concentration levels of the test compound in the plasma, in the brain and in the cerebrospinal fluid were quantified according to a relative calibration curve method.

Like-named read-outs stand apart in the source and are kept apart here.

T1 sequence (Q99705 whole entry): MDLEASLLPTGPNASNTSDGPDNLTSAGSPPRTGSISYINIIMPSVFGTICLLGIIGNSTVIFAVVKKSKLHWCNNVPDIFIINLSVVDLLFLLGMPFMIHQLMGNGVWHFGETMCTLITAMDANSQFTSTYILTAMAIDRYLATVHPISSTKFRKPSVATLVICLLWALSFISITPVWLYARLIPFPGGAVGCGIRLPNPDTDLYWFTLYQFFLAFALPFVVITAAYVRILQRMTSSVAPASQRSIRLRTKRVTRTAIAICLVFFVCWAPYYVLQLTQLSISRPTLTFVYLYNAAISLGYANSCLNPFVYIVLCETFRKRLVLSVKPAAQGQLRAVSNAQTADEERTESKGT

Take `C[C@@H]1CC[C@@H](C)N1CCOc1ccc(-n2ccc(OCc3ccc(F)cc3)cc2=O)cc1` (relative stereo) [Example 32, 4-(4-Fluorobenzyloxy)-1-{4-[2-(trans-2,5-dimethyl-1-pyrrolidinyl)ethoxy]-phenyl}-1H-pyridin-2-one]: the IC50 on human MCH-1R turned out to be 3.5 nM.

In data set [1], `CN(C)CCOc1ccc(-n2ccc(OCc3ccccc3)cc2=O)cc1` [Example 1, 4-Benzyloxy-1-{4-[2-(dimethylamino)ethoxy]phenyl}-1H-pyridin-2-one] registered a brain concentration of 2.33 nmol/g. In addition, the concentration at 2 h in data set [1] (cerebrospinal fluid, read-out: cerebrospinal fluid concentration) is 46 nM; in data set [1] (plasma, read-out: plasma concentration) it was 250 nM. Moreover, the IC50 on human MCH-1R is 9.5 nM.

Take `O=c1cc(OCc2ccccc2)ccn1-c1ccc(OCCN2CCCCC2)cc1` [Example 2, 4-Benxyloxy-1-{4-[2-(1-piperidinyl)ethoxy]phenyl}-1H-pyridin-2-one]: the IC50 on human MCH-1R amounted to 4.4 nM.

Consider `CN(CCOc1ccc(-n2ccc(OCc3ccccc3)cc2=O)cc1)Cc1ccccc1` [Example 5, 4-Benzyloxy-1-(4-{2-[benzyl(methyl)amino]ethoxy}phenyl)-1H-pyridin-2-one], for which the IC50 on human MCH-1R is 3.8 nM.

Consider `O=c1cc(OCc2ccccc2)ccn1-c1ccc(OCCN2CCCC2)cc1` [Example 12, 4-Benzyloxy-1-{4-[2-(1-pyrrolidinyl)ethoxy]phenyl}-1H-pyridin-2-one], for which the melting point – broadly, the temperature of the solid-liquid transition – lay in the range of 109 to 111 °C.

On to `O=c1cc(OCc2ccccc2)ccn1-c1ccc(O[C@@H]2CCN(C3CCCC3)C2)cc1` [Example 18, 4-Benzyloxy-1-(4-{[(3R)-1-cyclopentyl-3-pyrrolidinyl]oxy}-phenyl)-1H-pyridin-2-one], for which the IC50 on human MCH-1R was 4.3 nM.

On to `CC(C)N1CC[C@@H](Oc2ccc(-n3ccc(OCc4ccccc4)cc3=O)cc2)C1` [Example 19, 4-Benzyloxy-1-(4-{[(3R)-1-isopropyl-3-pyrrolidinyl]oxy}phenyl)-1H-pyridin-2-one], for which the IC50 at human MCH-1R is 5.1 nM.

Consider `Cc1cc(-n2ccc(OCc3ccccc3)cc2=O)ccc1OCCN1CCCCC1` [Example 21], for which the IC50 at human MCH-1R stood at 2.9 nM.

On to `O=c1cc(OCc2ccccc2)ccn1-c1ccc(OCCN2CCCC2)c(F)c1` [Example 23, 4-Benzyloxy-1-{3-fluoro-4-[2-(1-pyrrolidinyl)ethoxy]phenyl}-1H-pyridin-2-one], for which, at human MCH-1R, the IC50 is 5.2 nM.

For `O=c1cc(OCc2ccc(F)cc2)ccn1-c1ccc(OCCN2CCCCC2)cc1` [Example 28, 4-(4-Fluorobenzyloxy)-1-{4-[2-(1-piperidinyl)ethoxy]phenyl}-1H-pyridin-2-one], the IC50 at human MCH-1R turned out to be 4.9 nM.

With `CCN(CC)CCOc1ccc(-n2ccc(OCc3ccc(F)cc3)cc2=O)cc1` [Example 30, 1-{4-[2-(Diethylamino)ethoxy]phenyl}-4-(4-fluorobenzyloxy)-1H-pyridin-2-one], the IC50 on human MCH-1R came to 4.8 nM.

`O=c1cc(OCc2ccc(Cl)cn2)ccn1-c1ccc(OCCN2CCCC2)cc1` [Example 40, 4-[(5-Chloro-2-pyridinyl)methoxy]-1-{4-[2-(1-pyrrolidinyl)ethoxy]phenyl}-1H-pyridin-2-one] yielded a melting point of 168 to 170 °C.

For `O=c1cc(/C=C/c2ccc(F)cc2)ccn1-c1ccc(OCCN2CCCC2)cc1` [Example 45, 4-[(E)-2-(4-Fluorophenyl)vinyl]-1-{4-[2-(1-pyrrolidinyl)ethoxy]phenyl}-1H-pyridin-2-one], the IC50 at human MCH-1R turned out to be 1.5 nM.

Take `O=c1cc(CCc2ccccc2)ccn1-c1ccc(OCCN2CCCC2)cc1` [Example 53, 4-(2-Phenylethyl)-1-{4-[2-(1-pyrrolidinyl)ethoxy]phenyl}-1H-pyridin-2-one]: the IC50 on human MCH-1R amounted to 4.4 nM.

Take `O=c1cc(OCc2ccsc2)ccn1-c1ccc(OCCN2CCCC2)cc1` [Example 68, 1-{4-[2-(1-Pyrrolidinyl)ethoxy]phenyl}-4-(3-thienylmethoxy)-1H-pyridin-2-one]: at human MCH-1R, the IC50 is 4.5 nM.

As for `COc1ccc(COc2ccn(-c3ccc(OCCN4CCCC4)cc3)c(=O)c2)cc1` [Example 73, 4-(4-Methoxybenzyloxy)-1-{4-[2-(1-pyrrolidinyl)ethoxy]phenyl}-1H-pyridin-2-one], the IC50 at human MCH-1R was determined as 7 nM.

`O=c1cc(OCc2cccc(Cl)c2)ccn1-c1ccc(OCCN2CCCC2)cc1` [Example 75, 4-(3-Chlorobenzyloxy)-1-{4-[2-(1-pyrrolidinyl)ethoxy]phenyl}-1H-pyridin-2-one]: the IC50 at human MCH-1R amounted to 4.2 nM.

As for `CCN(CC)CCOc1ccc(-n2ccc(OCc3ccc(F)cc3)nc2=O)cc1` [Example 81], the IC50 at human MCH-1R came out at 7.8 nM.

`O=c1cc(OCc2ccccc2)ccn1-c1ccc(OCCN2C3CCC2CC3)cc1` [Example 86, 1-{4-[2-(7-Azabicyclo[2.2.1]hept-7-yl)ethoxy]phenyl}-4-benzyloxy-1H-pyridin-2-one]: the IC50 at human MCH-1R was determined as 1.9 nM.

As for `O=c1cc(OCc2ccc(F)cc2)ccn1-c1ccc(OCCN2C3CCC2CC3)cc1` [Example 90, 1-{4-[2-(7-Azabicyclo[2.2.1]hept-7-yl)ethoxy]phenyl}-4-(4-fluorobenzyloxy)-1H-pyridin-2-one], at human MCH-1R, the IC50 was determined as 2.7 nM.

For `O=c1cc(OCc2ccc(F)cc2)ccn1-c1ccc(OCCN2C3CCCC2CC3)cc1` [Example 91, 1-{4-[2-(8-Azabicylo[3.2.1]oct-8yl)ethoxy]phenyl}-4-(4-fluorobenzyloxy)-1H-pyridin-2-one], on human MCH-1R, the IC50 stood at 3.5 nM.

As for `O=c1cc(OCc2ccc(F)cc2)ccn1-c1ccc(O[C@@H]2C[C@H]3CCCN3C2)cc1` [Example 92, 4-(4-Fluorobenzyloxy)-1-{4-[(2R,7aR)-hexahydro-1H-pyrrolidin-2-yloxy]phenyl}-1H-pyridin-2-one], the IC50 at human MCH-1R amounted to 8.8 nM.

The compound `O=C1CCCN1CCOc1ccc(-n2ccc(OCc3ccc(F)cc3)cc2=O)cc1` [Example 95, 4-(4-Fluorobenzyloxy)-1-{4-[2-(2-oxo-1-pyrrolidinyl)ethoxy]phenyl}-1H-pyridin-2-one] yielded a melting point of 148 to 149 °C.

On to `CCN(CC)CCOc1ccc(-n2ccc(OCc3ccc(Cl)cn3)cc2=O)cc1` [Example 101], for which the melting point is 112 to 115 °C. In addition, the IC50 at human MCH-1R came to 5.4 nM.

As for `CCN(C)CCOc1ccc(-n2ccc(OCc3ccc(Cl)cn3)cc2=O)cc1` [Example 114, 4-[(5-Chloro-2-pyridinyl)methoxy]-1-(4-{2-[ethyl(methyl)amino]ethoxy}-phenyl)-1H-pyridin-2-one], on human MCH-1R, the IC50 worked out at 5.4 nM.

`CC(C)N(C)CCOc1ccc(-n2ccc(OCc3ccc(Cl)cn3)cc2=O)cc1` [Example 115, 4-[(5-Chloro-2-pyridinyl)methoxy]-1-(4-{2-[isopropyl(methyl)amino]ethoxy}-phenyl)-1H-pyridin-2-one] showed a melting point of 137 to 138 °C. Moreover, at human MCH-1R, the IC50 stood at 5.5 nM.

For the compound `CCCN(C)CCOc1ccc(-n2ccc(OCc3ccc(Cl)cn3)cc2=O)cc1` [Example 116, 4-[(5-Chloro-2-pyridinyl)methoxy]-1-(4-{2-[methyl(propyl)amino]ethoxy}-phenyl)-1H-pyridin-2-one], the melting point was in the range of 119 to 123 °C.

Compound `CC(C)N1CC[C@@H](Oc2ccc(-n3ccc(OCc4ccc(Cl)cn4)cc3=O)cc2)C1` [Example 122, 4-[(5-Chloro-2-pyridinyl)methoxy]-1-(4-{[(3R)-1-isopropyl-3-pyrrolidinyl]-oxy}phenyl)-1H-pyridin-2-one] showed a melting point of 154 to 155 °C.

For `CCN1CC[C@@H](Oc2ccc(-n3ccc(OCc4ccc(Cl)cn4)cc3=O)cc2)C1` [Example 123, 4-[(5-Chloro-2-pyridinyl)methoxy]-1-(4-{[(3R)-1-ethyl-3-pyrrolidinyl]-oxy}phenyl)-1H-pyridin-2-one], the melting point was 145 to 146 °C.

`CN1CC[C@@H](Oc2ccc(-n3ccc(OCc4ccc(Cl)cn4)cc3=O)cc2)C1` [Example 124, 4-[(5-Chloro-2-pyridinyl)methoxy]-1-(4-{[(3R)-1-methyl-3-pyrrolidinyl]-oxy}phenyl)-1H-pyridin-2-one]: on human MCH-1R, the IC50 was found to be 6.8 nM.

With `O=c1cc(OCc2ccc(Cl)cn2)ccn1-c1ccc(OC[C@H]2CCCN2C2CCC2)cc1` [Example 133], the IC50 on human MCH-1R stood at 4.7 nM.

On to `CN1CCC[C@H]1COc1ccc(-n2ccc(OCc3ccc(Cl)cn3)cc2=O)cc1` [Example 134, 4-[(5-Chloro-2-pyridinyl)methoxy]-1-(4-{[(2S)-1-methyl-2-pyrrolidinyl]-methoxy}phenyl)-1H-pyridin-2-one], for which the IC50 at human MCH-1R worked out at 8.6 nM.
